Laboratory results from publication PMC4308083, “Cytokine-Induced Loss of Glucocorticoid Function: Effect of Kinase Inhibitors, Long-Acting β2-Adrenoceptor Agonist and Glucocorticoid Receptor Ligands” (PLoS ONE, 2015).

Columns and labels:
[1] = test system: CDKN1C, DUSP1, RGS2 and TSC22D3 mRNA in BEAS-2B cells; experiment: RT-PCR of glucocorticoid-inducible gene expression in BEAS-2B cells; settings: JNK inhibitor VIII 3 or 10 μM, PS-1145 10 μM, 6 h (Fig. 7)
[2] = test system: 2×GRE reporter; experiment: Modulation of dexamethasone/NR3C1 ligand-induced 2×GRE reporter activation (kinase inhibitors, TNF, formoterol) in BEAS-2B cells; type: cell-based, human; settings: dexamethasone
Method: BEAS-2B cells stably transfected with a glucocorticoid response element (2×GRE) driven luciferase reporter plasmid, pGL3.neo.TATA.neo [23], were cultured in medium containing 0.25 mg/ml G-418 (Promega, Madison, WI). Cells were grown to confluence in 24 or 48 well plates and incubated overnight in serum-free media prior to experiments. Cells were harvested in reporter lysis buffer and luciferase assays performed according to the manufacturer’s instructions (Firefly Luciferase Assay Kit; Biotium; Hayward, CA) using a 20/20n luminometer (Promega).
Data (n = 7), expressed as a percentage of Dex activation, are plotted as means ± S.E. BEAS-2B 2×GRE cells were pre-treated for 30 min with the indicated concentrations of B. PS or JNK or C. JNK in the presence or absence of 10 μM PS, before addition of 10 ng/ml TNF. After 1 h, 10 μM Dex was added and cells harvested 6 h later for luciferase assay. […] D+T indicates Dex plus TNF treatment.
Data (n = 3–4), expressed as fold activation, are plotted as means ± S.E. D+T indicates Dex plus TNF treatment.
Cells were harvested after 6 h for luciferase assays. Data (n = 7), expressed as fold activation, are plotted as means ± S.E. Lines of best fit were added in panel B. Statistical analyses were performed by ANOVA with a Dunnett’s test comparing each NR3C1 ligand alone versus in the presence of TNF and/or Form. *, P<0.05; **, P<0.01; ***, P<0.001.

[3] = test system: JUN (c-Jun) phosphorylation; experiment: Western blot of TNF-induced JUN phosphorylation in BEAS-2B cells; type: cell-based, human; settings: 30 min pre-treatment, TNF 10 ng/ml 15 min, western blot (S1 Fig.), read-out: EC50 for decrease of TNF-induced JUN phosphorylation
From the text: Cells were lysed in 1× Laemmli buffer supplemented with phosphatase inhibitors (Sigma-Aldrich) and 1× complete protease inhibitor cocktail (Roche; Indianapolis, IN), size fractionated on 12% acrylamide gels and subsequently electro-transferred onto Hybond enhanced chemiluminescent membranes (GE Healthcare; Waukesha, WI). Membranes were blocked in 5% milk in tris-buffered saline containing 1% tween 20 and probed with antibodies against phospho-jun proto-oncogene (pJUN; pc-Jun) (9164; Cell Signaling Technology; Danvers, MA), nuclear factor of kappa light polypeptide gene enhancer in B-cells inhibitor, alpha (NFKBIA; IκBα) (sc-371; Santa Cruz Biotechnology; Dallas, TX), phospho-NFKBIA (9246; Cell Signaling Technology), phospho-AKT1 (9271S; Cell Signaling Technology), AKT (9272S; Cell Signaling Technology) and GAPDH (4699–9555(ST); AbD Serotec; Raleigh, NC). After washing, membranes were incubated with horseradish peroxidase-conjugated anti-rabbit (111–035–003; Jackson ImmunoResearch Laboratories Inc; West Grove, PA) or anti-mouse immunoglobulin (115–035–003; Jackson ImmunoResearch Laboratories Inc). Detection was by enhanced chemiluminescence (Pierce ECL Western Blotting Substrate; Thermo Fisher Scientific Inc.; Rockford, IL) and visualization by autoradiography. […]

EC50 ([2]; read-out: EC50 for reversal of TNF-induced repression of 2×GRE reporter, TNF 10 ng/ml, 6 h (Fig. 3B)): 1600 nM
EC50 [3]: ~300 nM
SMILES: CCOc1nc(NC(=O)Cc2cc(OC)ccc2OC)cc(N)c1C#N [JNK inhibitor VIII]
Effect on dexamethasone-induced mRNA expression of CDKN1C, DUSP1, RGS2, TSC22D3 in absence or presence of TNF [1]: no significant effect
2×GRE reporter induction restored in presence of TNF, % of that induced by dexamethasone ([2]; 10 μM inhibitor 30 min pre-treatment, TNF 10 ng/ml, 6 h (Fig. 3A)): 77%
Effect on dexamethasone-induced 2×GRE reporter activation (concentration-response) ([2]; 30 min pre-treatment, 6 h (Fig. 3B, Fig. 4), JNK inhibitor VIII only at 30 μM, PKC inhibitors above 1 μM): modestly enhanced
TNF-induced repression reversed to % of the response to dexamethasone ([2]; concentration-response, TNF 10 ng/ml, 6 h (Fig. 3B), repression ~60% without inhibitor): 87%
